The nature of data set [1]: Bioavailability following oral administration to rats. The settings on record: rat, in vivo. On the procedure: Rats were obtained commercially and were pre-cannulated in the jugular vein. Animals were conscious at the time of the experiment. All animals were fasted overnight and until 4 hours post-dosing of a compound.
Rat blood samples (0.3 mL/sample) were collected from all animals prior to dosing and at different time-points up to 24 h post-dose into tubes containing EDTA. Two aliquots (100 μL each) were quenched with 300 μL methanol and stored at −20° C. prior to analysis.
To prepare analysis standards, 90 μL of rat blood was quenched with 300 μL methanol followed by 10 μL of spiking standard and/or 20 μL of internal standard. The sample tubes were vortexed for at least 2 min and then centrifuged at 3400 rpm for 20 min. The supernatant was then transferred to an injection vial or plate for analysis by LC-MS-MS.
To prepare samples for analysis, 20 μL of internal standard was added to each quenched sample tube. The sample tubes were vortexed for at least 2 min and then centrifuged at 3400 rpm for 20 min. The supernatant was then transferred to an injection vial or plate for analysis by LC-MS-MS.
LC/MS/MS analysis was performed using an API 2000 or API 4000 mass spectrometer equipped with a Shimadzu and or Agilent HPLC system are used for determination concentration of compounds in rat blood. A Varian Polaris C18, 3μ 50×4.6 mm column was used. 0.1% Formic acid in water and acetonitrile were applied as the mobile phase. Runs were 4.0 min. […] L-4-Chlorophenylalanine was used as an internal standard at m/z 200.00/154.00.
Non-compartmental analysis was performed using WinNonlin software (v.3.1 Professional Version, Pharsight Corporation, Mountain View, Calif.) on individual animal profiles. […]
The oral bioavailability (F %) of a compound was determined by comparing the area under the compound concentration vs time curve (AUC) following oral administration of a prodrug of a GABAB ligand with the AUC of the compound concentration vs time curve following intravenous administration of the GABAB ligand on a dose normalized basis.

Data set [2] has as its system S. murinus (house musk shrew). The conditions noted are these: subcutaneously 30 minutes prior to challenge at 1, 3, and 10 mg/kg; reduced from about 23; cited from earlier work.
Data set [3] concerns GABAB(1)+/- and GABAB(1)+/+ mice. The conditions noted are these: 9.6 mg/kg, cited from earlier work.

In the case of `Cl.NC(=O)CC[C@H](N)C(=O)NC[C@H](CC(=O)O)c1ccc(Cl)c(-c2ccc(C(=O)O)s2)c1` [Example 80], in data set [1], the “oral bioavailability (F %)” value is reported as “greater than 10%”.

In the case of `NCC(CC(=O)O)c1ccc(Cl)cc1` (stereo not shown) [baclofen], the “number of emetic episodes” value in data set [2] is given as “about 13”. The hypothermia result in data set [3] (GABAB(1)+/- and GABAB(1)+/+ but not GABAB(1)-/- mice) is “marked hypothermia”. Moreover, the “time after administration at which hypothermia reaches its minimum” value in data set [3] is 60 to 80 min.

The values are drawn from patent US8344028B2, “Gamma-amino-butyric acid derivatives as GABAB receptor ligands” (XenoPort, Inc., priority 2009, dated 2013).
